From ChEMBL document CHEMBL4507263, “Data for DCP probe BAY-474” (2021) come the findings set out here.

Data set [1] addresses Serine/threonine-protein kinase WNK1 (Homo sapiens) (UniProt Q9H4A3). As to conditions: Compound concentration 1000.0 nM; call rule not given here.
The target of data set [2] is High affinity nerve growth factor receptor (Homo sapiens) (UniProt P04629). As to conditions: Compound concentration 1000.0 nM.
Data set [3] concerns the target RAC-beta serine/threonine-protein kinase (Homo sapiens) (UniProt P31751). As to conditions: Compound concentration 1000.0 nM.
In data set [4] the target is Phosphatidylinositol 4,5-bisphosphate 3-kinase catalytic subunit gamma isoform (Homo sapiens) (UniProt P48736). Particulars: Compound concentration 1000.0 nM.
Data set [5] deals with Proto-oncogene tyrosine-protein kinase ROS (Homo sapiens) (UniProt P08922). As to conditions: Compound concentration 1000.0 nM.
Data set [6] concerns Receptor-type tyrosine-protein kinase FLT3 (Homo sapiens), P36888 [K663Q]. As to conditions: Compound concentration 1000.0 nM.
Data set [7] deals with Serine/threonine-protein kinase pim-2 (Homo sapiens) (UniProt Q9P1W9). As to conditions: Compound concentration 1000.0 nM.
Chain of Serine/threonine-protein kinase pim-2 (Homo sapiens) (Q9P1W9 whole entry, looked up): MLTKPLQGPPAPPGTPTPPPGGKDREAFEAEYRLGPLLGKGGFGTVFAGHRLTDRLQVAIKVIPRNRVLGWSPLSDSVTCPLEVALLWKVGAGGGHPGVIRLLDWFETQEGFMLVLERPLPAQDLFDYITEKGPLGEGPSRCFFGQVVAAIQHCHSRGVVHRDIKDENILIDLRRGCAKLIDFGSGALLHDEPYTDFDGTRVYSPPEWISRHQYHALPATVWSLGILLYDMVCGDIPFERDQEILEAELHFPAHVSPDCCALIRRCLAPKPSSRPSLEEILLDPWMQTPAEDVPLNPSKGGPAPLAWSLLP
Data set [8] addresses Phosphatidylinositol 3-kinase catalytic subunit type 3 (Homo sapiens) (UniProt Q8NEB9). Particulars: Compound concentration 1000.0 nM.
The target in data set [9] is Receptor-interacting serine/threonine-protein kinase 2 (Homo sapiens) (UniProt O43353). Particulars: Compound concentration 1000.0 nM.
Data set [10] has as its target Vascular endothelial growth factor receptor 1 (Homo sapiens) (UniProt P17948). As to conditions: Compound concentration 1000.0 nM.
Data set [11] concerns the target Tyrosine-protein kinase ABL1 (Homo sapiens) (UniProt P00519). As to conditions: Compound concentration 1000.0 nM.
For data set [12], the target named is Ephrin type-A receptor 7 (Homo sapiens) (UniProt Q15375). Particulars: Compound concentration 1000.0 nM.
Chain of Ephrin type-A receptor 7 (Homo sapiens) (Q15375 28-998 limits assumed): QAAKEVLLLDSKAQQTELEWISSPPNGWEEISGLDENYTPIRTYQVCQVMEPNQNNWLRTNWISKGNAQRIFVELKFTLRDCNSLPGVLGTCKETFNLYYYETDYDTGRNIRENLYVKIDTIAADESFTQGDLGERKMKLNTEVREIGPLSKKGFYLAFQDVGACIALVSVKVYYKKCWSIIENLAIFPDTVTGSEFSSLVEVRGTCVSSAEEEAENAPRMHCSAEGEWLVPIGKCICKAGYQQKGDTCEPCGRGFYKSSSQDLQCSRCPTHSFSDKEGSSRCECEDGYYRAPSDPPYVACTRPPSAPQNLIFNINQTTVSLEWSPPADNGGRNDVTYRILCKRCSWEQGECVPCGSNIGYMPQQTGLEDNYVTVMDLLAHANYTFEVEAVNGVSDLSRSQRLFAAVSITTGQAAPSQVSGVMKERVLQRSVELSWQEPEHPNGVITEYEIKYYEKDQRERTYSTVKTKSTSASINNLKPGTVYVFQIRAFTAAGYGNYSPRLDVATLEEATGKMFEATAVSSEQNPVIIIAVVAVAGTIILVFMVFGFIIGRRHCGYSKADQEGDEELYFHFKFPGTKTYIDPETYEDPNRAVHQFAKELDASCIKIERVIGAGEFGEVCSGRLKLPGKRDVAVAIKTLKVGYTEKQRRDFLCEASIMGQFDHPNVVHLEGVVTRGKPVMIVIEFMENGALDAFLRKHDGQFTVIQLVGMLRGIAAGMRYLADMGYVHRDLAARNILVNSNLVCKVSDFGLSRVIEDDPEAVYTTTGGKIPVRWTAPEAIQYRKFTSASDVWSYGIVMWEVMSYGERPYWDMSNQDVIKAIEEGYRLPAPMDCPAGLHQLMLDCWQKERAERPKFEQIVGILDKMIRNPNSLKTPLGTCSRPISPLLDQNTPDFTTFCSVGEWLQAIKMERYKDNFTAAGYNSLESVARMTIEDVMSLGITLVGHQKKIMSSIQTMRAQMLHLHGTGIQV
For data set [13], the target named is Serine/threonine-protein kinase 36 (Homo sapiens) (UniProt Q9NRP7). Particulars: Compound concentration 1000.0 nM.
Data set [14] has as its target Serine/threonine-protein kinase Nek9 (Homo sapiens) (UniProt Q8TD19). Particulars: Compound concentration 1000.0 nM.
Data set [15] deals with Ribosomal protein S6 kinase alpha-3 (Homo sapiens, UniProt P51812). Particulars: Compound concentration 1000.0 nM.
Chain of Ribosomal protein S6 kinase alpha-3 (P51812 whole entry): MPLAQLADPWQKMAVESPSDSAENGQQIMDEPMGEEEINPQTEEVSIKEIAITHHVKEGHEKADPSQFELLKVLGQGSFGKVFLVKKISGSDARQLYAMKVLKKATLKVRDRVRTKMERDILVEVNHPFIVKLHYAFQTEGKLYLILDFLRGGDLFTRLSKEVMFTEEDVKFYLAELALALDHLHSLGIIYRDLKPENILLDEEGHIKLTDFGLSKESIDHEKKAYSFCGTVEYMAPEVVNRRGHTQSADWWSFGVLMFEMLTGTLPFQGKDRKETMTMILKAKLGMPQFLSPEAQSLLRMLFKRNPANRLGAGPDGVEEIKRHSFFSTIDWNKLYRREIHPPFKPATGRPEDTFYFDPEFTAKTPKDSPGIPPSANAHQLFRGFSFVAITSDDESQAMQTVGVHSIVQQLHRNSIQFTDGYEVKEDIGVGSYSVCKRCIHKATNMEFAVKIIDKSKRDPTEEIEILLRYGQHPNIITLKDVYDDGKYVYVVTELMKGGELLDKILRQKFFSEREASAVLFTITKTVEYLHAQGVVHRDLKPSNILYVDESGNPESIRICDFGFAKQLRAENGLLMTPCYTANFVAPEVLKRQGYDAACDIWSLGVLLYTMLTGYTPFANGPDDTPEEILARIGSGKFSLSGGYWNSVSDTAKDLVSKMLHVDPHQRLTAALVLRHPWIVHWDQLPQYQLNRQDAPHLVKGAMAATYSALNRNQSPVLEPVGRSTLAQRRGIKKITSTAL
Data set [16] deals with Serine/threonine-protein kinase B-raf (Homo sapiens), P15056 [V600E]. As to conditions: Compound concentration 1000.0 nM.
Data set [17] concerns the target Serine/threonine-protein kinase/endoribonuclease IRE1 (Homo sapiens) (UniProt O75460). As to conditions: Compound concentration 1000.0 nM.
In data set [18] the target is Serine/threonine-protein kinase B-raf (Homo sapiens) (UniProt P15056). As to conditions: Compound concentration 1000.0 nM.
Chain of Serine/threonine-protein kinase B-raf (Homo sapiens) (P15056 whole entry): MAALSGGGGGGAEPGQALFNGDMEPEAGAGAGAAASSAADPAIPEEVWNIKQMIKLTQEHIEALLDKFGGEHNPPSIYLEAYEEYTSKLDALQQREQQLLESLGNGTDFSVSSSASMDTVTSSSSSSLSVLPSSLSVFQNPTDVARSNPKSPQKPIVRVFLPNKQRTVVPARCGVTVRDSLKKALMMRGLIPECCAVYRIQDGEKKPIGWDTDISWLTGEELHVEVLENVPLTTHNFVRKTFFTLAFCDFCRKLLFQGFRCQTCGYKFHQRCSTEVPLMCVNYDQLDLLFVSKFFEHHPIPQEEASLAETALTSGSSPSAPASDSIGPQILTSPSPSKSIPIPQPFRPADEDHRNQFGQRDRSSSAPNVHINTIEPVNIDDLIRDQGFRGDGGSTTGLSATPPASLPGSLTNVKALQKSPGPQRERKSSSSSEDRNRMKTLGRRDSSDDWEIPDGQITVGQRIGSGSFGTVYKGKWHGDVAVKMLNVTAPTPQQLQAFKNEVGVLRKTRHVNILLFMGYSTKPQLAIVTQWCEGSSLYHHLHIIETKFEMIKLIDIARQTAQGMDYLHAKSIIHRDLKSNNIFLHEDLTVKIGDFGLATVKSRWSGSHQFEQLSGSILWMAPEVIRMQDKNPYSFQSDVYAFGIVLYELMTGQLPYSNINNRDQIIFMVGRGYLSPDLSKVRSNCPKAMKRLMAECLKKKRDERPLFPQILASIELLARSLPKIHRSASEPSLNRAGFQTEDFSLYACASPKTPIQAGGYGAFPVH
Data set [19] concerns the target Rho-associated protein kinase 2 (Homo sapiens) (UniProt O75116). Particulars: Compound concentration 1000.0 nM.
Data set [20] concerns the target GABA-A receptor; anion channel (Rattus norvegicus) (UniProt O09028+P15431+P18506+P18508+P19969+P20236+P23574+P23576+P28471+P28473+P30191+P62813+P63079+P63138+Q91ZM7+Q9ES14). As to conditions: Compound concentration 10.0 uM.
Data set [21] concerns Fibroblast growth factor receptor 3 (Homo sapiens), P22607 [G697C]. Particulars: Compound concentration 1000.0 nM.
Data set [22] addresses Platelet-derived growth factor receptor beta (Homo sapiens) (UniProt P09619). Particulars: Compound concentration 1000.0 nM.
Data set [23] deals with Membrane-associated tyrosine- and threonine-specific cdc2-inhibitory kinase (Homo sapiens) (UniProt Q99640). As to conditions: Compound concentration 1000.0 nM.
Data set [24] addresses Dual specificity protein kinase CLK2 (Homo sapiens) (UniProt P49760). As to conditions: Compound concentration 1000.0 nM.
The target of data set [25] is Serine/threonine-protein kinase PRP4 homolog (Homo sapiens) (UniProt Q13523). As to conditions: Compound concentration 1000.0 nM.
Data set [26] deals with Misshapen-like kinase 1 (Homo sapiens) (UniProt Q8N4C8). Particulars: Compound concentration 1000.0 nM.
Data set [27] deals with Ephrin type-B receptor 4 (Homo sapiens) (UniProt P54760). As to conditions: Compound concentration 1000.0 nM.
Data set [28] addresses Endothelin-1 receptor (Homo sapiens) (UniProt P25101). As to conditions: Compound concentration 10.0 uM.
The target in data set [29] is Sodium-dependent dopamine transporter (Homo sapiens) (UniProt Q01959). As to conditions: Compound concentration 10.0 uM.
Data set [30] addresses Serine/threonine-protein kinase 10 (Homo sapiens) (UniProt O94804). In words: LOK (h) Millipore kinase activity assay. As to conditions: Compound concentration 1.0 uM.
For data set [31], the target named is Ephrin type-A receptor 2 (Homo sapiens) (UniProt P29317). The data set is described as follows: EphA2 (h) Millipore kinase activity assay. As to conditions: Compound concentration 1.0 uM.
Data set [32] concerns the target Fibroblast growth factor receptor 2 (Homo sapiens) (UniProt P21802). In words: FGFR2 (h) Millipore kinase activity assay. Particulars: Compound concentration 1.0 uM.
For data set [33], the target named is G protein-coupled receptor kinase 5 (Homo sapiens) (UniProt P34947). In words: GRK5 (h) Millipore kinase activity assay. As to conditions: Compound concentration 1.0 uM.
Data set [34] deals with Cytoplasmic tyrosine-protein kinase BMX (Homo sapiens) (UniProt P51813). The data set is described as follows: Bmx (h) Millipore kinase activity assay. As to conditions: Compound concentration 1.0 uM.
Data set [35] concerns the target Rho-associated protein kinase 2 (Homo sapiens) (UniProt O75116). The data set is described as follows: ROCK-II (h) Millipore kinase activity assay. Particulars: Compound concentration 1.0 uM.
Data set [36] concerns the target Cyclin-dependent kinase 1/cyclin B (Homo sapiens) (UniProt P06493+P14635+Q8WWL7+O95067). In words: CDK1/cyclinB( h) Millipore kinase activity assay. In kind it is protein-complex assay. Particulars: Compound concentration 1.0 uM.
Data set [37] concerns the target Serine/threonine-protein kinase Nek6 (Homo sapiens) (UniProt Q9HC98). In words: NEK6 (h) Millipore kinase activity assay. Particulars: Compound concentration 1.0 uM.
Data set [38] has as its target voltage-gated sodium channel, site 2 (Rattus norvegicus, UniProt F1LQQ7+O08562+O88420+O88457+P04774+P04775+P08104+P15389+P15390+Q62968). The data set is described as follows: Inhibition of Sodium Channel, Site 2 at 10 µM in the Eurofins-Panlabs radioligand binding assay (Eurofins_assay_279510). In kind it is protein assay. Also noted: ligand concentration 5 nM, non-specific ligand with concentration 100 µM Veratridine, incubation time 60 min, incubation temperature 37 °C. Particulars: male, Wistar, rat whole brain (except cerebellum) membranes, probe [3H] Batrachotoxinin, compound concentration 10 uM.

For data set [39], the target named is hERG (KCNH2) (Homo sapiens, UniProt Q12809). In words: Inhibition of Potassium Channel hERG at 10 µM in the Eurofins-Panlabs radioligand binding assay (Eurofins_assay_265900). On the set-up: ligand concentration 1.5 nM, non-specific ligand with concentration Astemizole, incubation time 60 min, incubation temperature 25 °C. As to conditions: HEK-293 cells expressing human recombinant hERG, probe [3H] Astemizole, compound concentration 10 uM.

Data set [40] addresses MAP kinase-activated protein kinase 5 (Homo sapiens) (UniProt Q8IW41). In words: PRAK (h) Millipore kinase activity assay. Particulars: Compound concentration 1.0 uM.
For data set [41], the target named is Serine/threonine-protein kinase BRSK1 (Homo sapiens) (UniProt Q8TDC3). In words: BrSK1 (h) Millipore kinase activity assay. As to conditions: Compound concentration 1.0 uM.

As a reminder, the residual activity is the share of the control activity or signal that is left under treatment. By inhibition is commonly meant the relative decrease from the control value, in per cent.

Chain of Rho-associated protein kinase 2 (Homo sapiens) (O75116 whole entry, looked up): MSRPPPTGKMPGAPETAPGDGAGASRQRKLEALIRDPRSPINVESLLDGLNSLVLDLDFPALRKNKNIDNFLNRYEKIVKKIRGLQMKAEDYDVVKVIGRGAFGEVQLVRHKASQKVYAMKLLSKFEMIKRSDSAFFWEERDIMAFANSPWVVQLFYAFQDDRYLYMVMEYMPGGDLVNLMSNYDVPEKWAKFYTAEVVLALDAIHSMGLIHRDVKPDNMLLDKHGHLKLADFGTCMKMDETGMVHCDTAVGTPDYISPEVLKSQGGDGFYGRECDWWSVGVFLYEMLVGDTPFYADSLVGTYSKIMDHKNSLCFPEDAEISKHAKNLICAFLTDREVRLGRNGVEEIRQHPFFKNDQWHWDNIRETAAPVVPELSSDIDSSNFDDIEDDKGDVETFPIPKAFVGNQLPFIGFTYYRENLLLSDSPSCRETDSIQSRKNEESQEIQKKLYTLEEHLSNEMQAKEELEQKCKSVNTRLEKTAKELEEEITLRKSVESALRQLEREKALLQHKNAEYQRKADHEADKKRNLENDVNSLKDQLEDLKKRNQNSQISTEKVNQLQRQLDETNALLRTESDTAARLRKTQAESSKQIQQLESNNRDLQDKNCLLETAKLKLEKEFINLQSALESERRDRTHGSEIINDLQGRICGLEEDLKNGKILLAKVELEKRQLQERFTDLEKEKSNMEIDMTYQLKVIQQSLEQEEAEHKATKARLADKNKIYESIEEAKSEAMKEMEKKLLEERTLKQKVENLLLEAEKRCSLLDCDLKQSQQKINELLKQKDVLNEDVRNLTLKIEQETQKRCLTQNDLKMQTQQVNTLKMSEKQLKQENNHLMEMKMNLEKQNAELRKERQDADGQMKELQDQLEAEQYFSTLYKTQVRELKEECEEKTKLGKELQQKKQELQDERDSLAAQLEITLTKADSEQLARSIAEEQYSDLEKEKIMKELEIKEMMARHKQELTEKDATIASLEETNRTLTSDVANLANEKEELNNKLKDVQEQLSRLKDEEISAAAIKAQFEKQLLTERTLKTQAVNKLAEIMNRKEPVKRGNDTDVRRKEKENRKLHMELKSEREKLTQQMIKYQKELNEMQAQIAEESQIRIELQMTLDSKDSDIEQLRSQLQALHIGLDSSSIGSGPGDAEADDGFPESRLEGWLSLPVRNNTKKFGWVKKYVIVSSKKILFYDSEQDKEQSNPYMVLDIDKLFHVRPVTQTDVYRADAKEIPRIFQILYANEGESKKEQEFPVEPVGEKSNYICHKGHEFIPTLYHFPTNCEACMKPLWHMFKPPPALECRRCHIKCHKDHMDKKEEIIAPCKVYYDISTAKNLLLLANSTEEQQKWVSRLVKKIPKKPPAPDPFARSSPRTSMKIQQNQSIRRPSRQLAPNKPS
Chain of Endothelin-1 receptor (Homo sapiens) (P25101 whole entry): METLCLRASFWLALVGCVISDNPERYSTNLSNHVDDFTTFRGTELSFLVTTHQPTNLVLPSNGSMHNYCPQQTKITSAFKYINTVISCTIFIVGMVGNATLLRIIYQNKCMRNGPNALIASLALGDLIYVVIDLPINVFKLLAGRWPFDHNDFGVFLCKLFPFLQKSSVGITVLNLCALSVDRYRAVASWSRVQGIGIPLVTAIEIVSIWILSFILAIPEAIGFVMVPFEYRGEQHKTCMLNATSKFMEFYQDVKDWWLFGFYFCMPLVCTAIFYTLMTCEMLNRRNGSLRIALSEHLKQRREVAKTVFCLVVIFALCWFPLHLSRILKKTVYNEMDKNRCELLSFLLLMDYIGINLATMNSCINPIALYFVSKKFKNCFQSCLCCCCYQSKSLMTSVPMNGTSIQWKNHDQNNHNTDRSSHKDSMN
Chain of MAP kinase-activated protein kinase 5 (Homo sapiens) (Q8IW41 whole entry): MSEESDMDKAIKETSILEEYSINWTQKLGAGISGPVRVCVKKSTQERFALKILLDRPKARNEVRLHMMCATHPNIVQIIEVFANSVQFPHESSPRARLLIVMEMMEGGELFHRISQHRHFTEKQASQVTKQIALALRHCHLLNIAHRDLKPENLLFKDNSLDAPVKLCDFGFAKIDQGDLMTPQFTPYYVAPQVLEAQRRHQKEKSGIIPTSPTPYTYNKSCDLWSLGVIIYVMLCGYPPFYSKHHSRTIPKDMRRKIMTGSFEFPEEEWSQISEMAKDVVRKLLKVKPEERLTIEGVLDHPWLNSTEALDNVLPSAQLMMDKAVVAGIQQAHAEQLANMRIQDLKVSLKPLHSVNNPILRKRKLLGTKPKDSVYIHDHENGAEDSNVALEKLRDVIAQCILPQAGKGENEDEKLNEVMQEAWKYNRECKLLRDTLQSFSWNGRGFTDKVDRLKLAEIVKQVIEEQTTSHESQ

With `CC1=C(C#N)[C@@H](c2ccc3[nH]nc(C)c3c2)C(C#N)=C(c2ccc(Cl)cc2)N1` [BAY-827], the residual activity in data set [1] was 100%; in data set [2], 84.6%; in [3], 100%; in data set [4], 100%; in data set [5] it was 100%; in data set [6] it was 100%. The residual activity in [7] was 100%; in data set [8], 100%; in data set [9], 92%; in data set [10], 100%; in data set [11], 52.6%; in data set [12], 91.2%. Also, the residual activity was 95.9% in [13]; 95.6% in data set [14]; 78.1% in [15]; 100% in [16]; 100% in [17]; 100% in [18]. For the same molecule, the residual activity in data set [19] is 91.9%; in data set [21] it was 100%; in [22], 100%; in data set [23], 100%; in [24], 100%; in data set [25], 100%. For the same molecule, the residual activity in [26] is 77%; in data set [27] it was 100%. The inhibition in data set [20] was -7.24%.

On to `CC1=C(C#N)C(c2ccc3[nH]nc(C)c3c2)C(C#N)=C(C)N1` [BAY-474], for which the inhibition in [28] was 7%; in data set [29] it was 0%; in data set [30] it was 26%; in [31] it was 13%; in data set [32] it was 17%; in data set [33], 0%. Moreover, the inhibition was -7% in data set [34]; -3% in data set [35]; 16% in data set [36]; -10% in data set [37]; 6% in data set [40]; 9% in [41]. Moreover, the inhibition at 60 min, 10 µM in data set [38] was -1% (not active); in data set [39], 7% (not active).
